The source of these data is US20190016686A1, “SALTS OF COMPOUNDS HAVING A BENZIMIDAZOLIC STRUCTURE, USES AND PROCESS FOR THE PREPARATION THEREOF” (ISTITUTO SUPERIORE DI SANITÀ, priority 2015, published 2019).

The conditions of data set [1]: cited from earlier work.
A short description of data set [2]: solubility in solvents (ethanol, methanol, water, n-hexane). The data set is classed as physicochemical. Conditions: salt of the invention.
Data set [3] deals with cell lines of ovarian carcinoma. As to conditions: published results; cited from earlier work.
The test system of data set [4] is cell lines of glioblastoma multiforme. Conditions: published results; cited from earlier work.
Where [5] appears, read: literature value (J Pharm Sci 94(5), 2005).

Values after ≈ are worked out from the molar mass of the structure shown. Where two headings read alike, the source gives them in different places.

For `CCC[S+]([O-])c1ccc2[nH]c(NC(=O)OC)nc2c1` (centres unmarked) [ABZ-SO, Albendazole sulphoxide], the solubility in ethanol was 1.36 mg/mL (≈ 4830 µM) in data set [1] (setting [5]) and “circa 1 mg mL^−1” in data set [1] (non-salified sulphoxide, stated as known). In addition, the solubility in methanol result in data set [1] (methanol, in words) is reported as “slightly soluble”. Also, the solubility in n-hexane entry in data set [1] (n-hexane, in words) is “practically insoluble”. The solubility in water result in data set [1] (in words) is “practically insoluble”; in data set [1] (in words, listed as RBZ) it was “poorly soluble”; in data set [1] (setting [5]), 0.062 mg/mL (≈ 220 µM).

Turning to `CCC[S+]([O-])c1ccc2[n-]c(NC(=O)OC)nc2c1.[Na+]` (centres unmarked) [ABZ-SO—Na], the solubility in ethanol entry in data set [2] (ethanol) is “about 30 mg mL^−1”. Further, in data set [2] (methanol), the solubility in methanol entry was “about 30 mg mL^−1”.

With `COC(=O)Nc1nc2ccc(C(=O)c3ccccc3)cc2[nH]1` [MBZ, mebendazole], the cytotoxicity entry in data set [3] and in data set [4] was “demonstrated cytotoxicity” each time.
